Assay results: ChEMBL document CHEMBL3992513, “Synthesis, anti-inflammatory, cyclooxygenases inhibitions assays and histopathological study of poly-substituted 1,3,5-triazines: Confirmation of regiospecific pyrazole cyclization by HMBC” (Eur J Med Chem, 2017)

Legend:
[1] = test system: Rattus norvegicus; assay: Anti-inflammatory activity in Wistar albino rat assessed as inhibition of carragenan-induced paw edema thickness at 50 mg/kg, po measured after 3 hrs relative to control; assay type: functional
[2] = test system: Rattus norvegicus; assay: Anti-inflammatory activity in Wistar albino rat assessed as inhibition of carragenan-induced paw edema thickness at 50 mg/kg, po measured after 5 hrs relative to control; assay type: functional
[3] = test system: Rattus norvegicus; assay: Anti-inflammatory activity in Wistar albino rat assessed as inhibition of carragenan-induced paw edema thickness at 50 mg/kg, po measured after 1 hr relative to control; assay type: functional
[4] = biological target: T1, Prostaglandin G/H synthase 1 (Ovis aries, UniProt P05979); assay: Inhibition of ovine COX1 using arachidonic acid as substrate preincubated for 5 mins followed by substrate addition measured after 2 mins by enzyme immunoassay
T1 sequence (P05979 whole entry): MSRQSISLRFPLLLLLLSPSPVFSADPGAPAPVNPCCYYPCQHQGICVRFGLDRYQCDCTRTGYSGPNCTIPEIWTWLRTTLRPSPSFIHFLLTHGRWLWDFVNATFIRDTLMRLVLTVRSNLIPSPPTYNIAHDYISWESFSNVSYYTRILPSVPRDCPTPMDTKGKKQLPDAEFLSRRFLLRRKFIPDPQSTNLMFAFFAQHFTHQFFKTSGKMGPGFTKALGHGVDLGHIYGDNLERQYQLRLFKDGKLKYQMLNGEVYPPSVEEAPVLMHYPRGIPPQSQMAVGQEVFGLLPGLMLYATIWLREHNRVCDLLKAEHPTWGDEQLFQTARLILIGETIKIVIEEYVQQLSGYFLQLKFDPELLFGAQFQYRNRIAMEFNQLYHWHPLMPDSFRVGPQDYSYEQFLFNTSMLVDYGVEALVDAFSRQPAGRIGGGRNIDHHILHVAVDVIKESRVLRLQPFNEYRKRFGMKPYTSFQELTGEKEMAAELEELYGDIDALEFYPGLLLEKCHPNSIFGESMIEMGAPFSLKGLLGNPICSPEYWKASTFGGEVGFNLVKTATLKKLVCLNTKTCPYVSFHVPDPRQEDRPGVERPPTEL

[5] = test system: Rattus norvegicus; assay: Ulcerogenicity in Wistar albino rat model of carragenan-induced paw edema assessed as blood vessel dilation in sub-mucosa at 50 mg/kg, po by hematoxylin and eosin staining based histopathological analysis; assay type: toxicity, organism-based; conditions: in vivo
[6] = test system: Rattus norvegicus; assay: Ulcerogenicity in Wistar albino rat model of carragenan-induced paw edema assessed as leucocytic infiltration in sub mucosa at 50 mg/kg, po by hematoxylin and eosin staining based histopathological analysis; assay type: toxicity, organism-based; conditions: in vivo
[7] = test system: Rattus norvegicus; assay: Ulcerogenicity in Wistar albino rat model of carragenan-induced paw edema assessed as degenrative changes with necrotic changes in gastric mucosa at 50 mg/kg, po by hematoxylin and eosin staining based histopathological analysis; assay type: toxicity, organism-based; conditions: in vivo
[8] = test system: Rattus norvegicus; assay: Ulcerogenicity in Wistar albino rat model of carragenan-induced paw edema assessed as hyalinosis and coagulative necrosis of muscular layer in stomach at 50 mg/kg, po by hematoxylin and eosin staining based histopathological analysis; assay type: toxicity, organism-based; conditions: in vivo
[9] = test system: Rattus norvegicus; assay: Ulcerogenicity in Wistar albino rat model of carragenan-induced paw edema assessed as corrugations of muscular layer in stomach at 50 mg/kg, po by hematoxylin and eosin staining based histopathological analysis; assay type: toxicity, organism-based; conditions: in vivo
[10] = test system: Rattus norvegicus; assay: Ulcerogenicity in Wistar albino rat model of carragenan-induced paw edema assessed as blood vessel congestion with edema in sub-mucosa at 50 mg/kg, po by hematoxylin and eosin staining based histopathological analysis; assay type: toxicity, organism-based; conditions: in vivo

Compound | IC50 [4] | inhibition in vivo at 50 mg/kg [1] | inhibition in vivo at 50 mg/kg [2] | inhibition in vivo at 50 mg/kg [3] | Activity [5] | Activity [6] | Activity [7] | Activity [8] | Activity [9] | Activity [10]
COc1ccc2c(c1)c(CC(=O)O)c(C)n2C(=O)c1ccc(Cl)cc1 [INDOMETHACIN] |  |  |  |  | Toxic | Toxic | Toxic | Toxic |  | 
c1cc(-c2ccc(Nc3nc(N4CCCCC4)nc(N4CCCCC4)n3)cc2)on1 | 7.23 µM | 26% | 25% | 51% |  |  |  |  |  | 
CS(=O)(=O)c1ccc(-n2nccc2-c2ccc(Nc3nc(N4CCOCC4)nc(N4CCOCC4)n3)cc2)cc1 | 3.87 µM |  |  |  |  |  | Non-Toxic | Non-Toxic |  | 
Cc1ccc(-c2cc(C(F)(F)F)nn2-c2ccc(S(N)(=O)=O)cc2)cc1 [CELECOXIB] |  | 72% | 20% | 77% | Toxic | Toxic | Toxic |  | Toxic | 
CN(C)/C=C/C(=O)c1ccc(Nc2nc(N3CCCCC3)nc(N3CCCCC3)n2)cc1 | 6.85 µM | 14% | 20% | 19% |  |  |  |  |  | 
CS(=O)(=O)c1ccc(-n2nccc2-c2ccc(Nc3nc(N4CCCCC4)nc(N4CCCCC4)n3)cc2)cc1 | 7.98 µM | 38% | 20% | 36% |  |  |  |  |  | 
COc1cc(/C=C/C(=O)c2ccc(Nc3nc(N4CCCCC4)nc(N4CCCCC4)n3)cc2)cc(OC)c1OC | 7.25 µM |  |  |  |  |  |  |  |  | 
c1cc(-c2ccc(Nc3nc(N4CCOCC4)nc(N4CCOCC4)n3)cc2)on1 | 4.33 µM |  |  |  |  |  |  |  |  | 
c1ccc(-n2nccc2-c2ccc(Nc3nc(N4CCOCC4)nc(N4CCOCC4)n3)cc2)cc1 | 4.99 µM |  |  |  |  | Toxic | Toxic | Toxic |  | Toxic
c1cc(-c2ccc(Nc3nc(N4CCCCC4)nc(N4CCCCC4)n3)cc2)[nH]n1 | 4.95 µM | 24% | 5% | 58% |  |  |  |  |  | 
COc1cc(/C=C/C(=O)c2ccc(Nc3nc(N4CCOCC4)nc(N4CCOCC4)n3)cc2)cc(OC)c1OC | 4.65 µM | 18% | 15% | 58% |  | Non-Toxic | Non-Toxic | Non-Toxic |  | Toxic

More lines, in order of falling IC50 [4], values ahead:

IC50 [4] | Compound | inhibition in vivo at 50 mg/kg [1] | inhibition in vivo at 50 mg/kg [2] | inhibition in vivo at 50 mg/kg [3] | Activity [5] | Activity [6] | Activity [7] | Activity [8] | Activity [9] | Activity [10]
8.61 µM | COc1cc(C2CC(c3ccc(Nc4nc(N5CCOCC5)nc(N5CCOCC5)n4)cc3)=NN2C(C)=O)cc(OC)c1OC (stereo unspecified) |  |  |  |  |  |  |  |  | 
8.23 µM | CC(=O)c1ccc(Nc2nc(N3CCCCC3)nc(N3CCCCC3)n2)cc1 |  |  |  |  |  |  |  |  | 
6.42 µM | c1ccc(-n2nccc2-c2ccc(Nc3nc(N4CCCCC4)nc(N4CCCCC4)n3)cc2)cc1 | 18% | 2% | 32% |  |  |  |  |  | 
5.93 µM | CC(=O)c1ccc(Nc2nc(N3CCOCC3)nc(N3CCOCC3)n2)cc1 | 8% | 0% | 21% |  |  |  |  |  | 
5.26 µM | c1cc(-c2ccc(Nc3nc(N4CCOCC4)nc(N4CCOCC4)n3)cc2)[nH]n1 |  |  |  |  |  |  |  |  | 
3.98 µM | CN(C)/C=C/C(=O)c1ccc(Nc2nc(N3CCOCC3)nc(N3CCOCC3)n2)cc1 |  |  |  |  | Toxic | Toxic | Toxic |  | 
3.52 µM | COc1cc(C2CC(c3ccc(Nc4nc(N5CCCCC5)nc(N5CCCCC5)n4)cc3)=NN2C(C)=O)cc(OC)c1OC (stereo unspecified) | 34% | 2% | 45% |  | Toxic | Toxic |  |  | 
